Experimental findings from patent US20260263517A1, “THERAPEUTIC METHODS WITH TARGET-LINKED SMALL MOLECULES AND ANTI-TARGET CAR T CELLS” (Seattle Children's Hospital (dba Seattle Children's …, priority 2022, published 2026) are described below.

This data set has as its system MDA-MB-231 tumors. Nature of the data set: EC17 dose finding and CRS assessment in MDA-MB-231 tumor-bearing mice. The format is in vivo. To be noted: for human IFNγ in mouse plasma, fold over CAR-T cells only: all EC17 treated tumor cohorts. Here is the method: All animal care and use were performed according to NIH guidelines and in compliance with protocols approved by the Purdue University Animal Use and Care Committee. Female 4 to 5-week-old NOD/SCID gamma (NSG™) mice (stock number:005557) were purchased from The Jackson Faboratory (Bar Harbor, ME). Unless specifically indicated, all animals were maintained on a FA-deficient diet (TestDiet, St. Fouis, MO) upon arrival and throughout the study. To establish subcutaneous xenografts, MDA-MB-231 and HOS-FRα were implanted in the right flank region at 2.5×10^6 and 1×10^6 cells per animal, respectively. For intravenous xenografts, THP1-FRβ) cells were inoculated at 5×10^6 cells per animal. Subcutaneous tumors were measured 2-3 times per week with a caliper and calculated using the ellipsoidal formula (length×width2)/2. […] All animal doses (CAR-T cells, EC17, sodium fluorescein) were given intravenously.
In a therapeutic setting, EC17 CAM can be given before or after CAR-T cell injection. As described herein, the first dose of EC17 was administered 2-3.5 days after CAR-T cells to allow for an observation period of human T cells in tumor-bearing mice. Two batches of unsorted E2-CAR-T cells (23% or 39% EGFRt+, 1:1 CD4/CD8) were used for in vivo studies. On the day of infusion for each experiment (day 0), frozen CAR-T cells were quickly thawed at 37° C., washed 2× with Dulbecco's IX PBS (pH 7.4) and injected into the tail vein at desired EGFRt+E2-CAR-T cell doses. In addition, a small aliquot of CAR-T cells was analyzed by flow cytometry for CD4 to CD 8 ratio and differentiation status of CAR-T cells. On the first day of EC17 dose, tumor-bearing animals were randomly assigned into groups according to their tumor sizes or the same number of days post intravenous implantation (i.e., THP1-FRβ).
For MDA-MB-231 studies, mice received a high dose (~10 million) of a “clinical facsimile” of E2-CAR-T cells (~39% EGFRt+) with a low differentiation profile (FIG. 9). Two days later, 3 different treatment regimens of EC17 were started at an average tumor size of −293±39 mm^3 (FIG. 12). The EC17 dosing was given once-a-week (SIW) at 500 nmol/kg on Mondays, or as escalating doses of 5, 50 or 100, and 500 or 1000 nmol/kg (i.e., 5/50/500 or 5/100/1000) on Monday, Thursday, and Monday with a 6-day break in-between cycles. Control mice were left untreated (received CAR-T cells but no EC17). For comparison, a cohort of tumor-free littermates also received the same number of CAR-T cells without or with EC17 SIW at 500 nmol/kg.
The initial EC17 dose finding studies were conducted in MDA-MB-231 tumor bearing mice as shown by the schematic diagram of the experimental layout (FIG. 12, panel A). NSG mice without or with MDA-MB-231 tumors (~211±65 mm3) were engrafted on day 0 with −10 million of a “clinical facsimile” batch of E2-CAR-T cells (−39% EGFRt+, 51:49 CD4/CD8). This batch of CAR-T cells consisted of mostly TSCM and TCM phenotypes (see FIG. 9). Two days after the CAR-T cell injection, one cohort of tumor-bearing mice were left untreated while three cohorts were treated with different regimens of EC17, including single injection per week (SIW) at 500 nmol/kg, or as escalating EC17 dose levels of 5/50/500 (Escalation-1) or 5/100/1000 nmol/kg (Escalation-2) given on a Monday/Thursday/Monday schedule with 1-week drug-free intervals. For comparison, two tumor-free cohorts were either untreated or treated with EC17 SIW at 500 nmol/kg.

[1] abbreviates: ~10 million CAR-T cells, continued EC17 dosing independent of the regimen.

SMILES strings stand for the structures.

`NC1=NC2N=CC(CNc3ccc(C(=O)N[C@@H](CCC(=O)NCCNC(=S)Nc4ccc(-c5c6ccc(=O)cc-6oc6cc(O)ccc56)c(C(=O)O)c4)C(=O)O)cc3)=NC2C(=O)N1` (stereo partly drawn) [EC17, FA-(γ)-ethylenediamine-FITC] came in with a cures (EC17-treated cohorts) of 100%. Moreover, the body weight loss result reads like this: (EC17 Escalation-2 regimen 5/100/1000 nmol/kg) “persistent body weight loss”; under setting [1], “significant body weight losses”. For the same molecule, where the note is “EC17 SIW at 500 nmol/kg”, the “onset of CRS and body weight loss” value is “earliest onset of CRS and body weight loss”. The “human IFNγ in mouse plasma, fold over CAR-T cells only” value (day 11 (~20 hours after previous EC17 dose)) was ~ 30 × and the “human IFNγ in mouse plasma, fold over CAR-T cells only” value (day 12 (~42 hours after previous EC17 dose)) is given as ~ 10 ×. Also, the “EC17 dose triggering severe CRS (grade≥3)” value (in combination with a high CAR-T cell dose) is ≥ 500 nmol/kg. For the same molecule, the “persistence of CAR-T cells in mouse blood” value (tumor-bearing animals, last measurement) is “up to 54 days”. The “CRS symptoms (grades)” value under setting [1] was 2-3.
